Experimental data from ChEMBL document CHEMBL1149213, “Porphyrin-DNA cross-linking agent hybrids: chemical synthesis and biological studies” (Bioorg Med Chem Lett, 2004).

System: THP-1
Experiment: Cytotoxicity was determined against THP-1 cell line as reduction in cell number
Assay type: functional, cell-based
Conditions: Homo sapiens

| Structure (SMILES) | IC50 [nM] |
| --- | --- |
| CCc1c2nc(c(-c3ccc(O)c(C[N+](C)(C)C)c3)c3ccc([nH]3)c(CC)c3ccc([nH]3)c(-c3ccc(O)c(C[N+](C)(C)C)c3)c3nc1C=C3)C=C2 | 88.4 |
| C[N+](C)(C)Cc1cc(-c2c3nc(c(-c4ccccc4)c4ccc([nH]4)c(-c4ccc(O)c(C[N+](C)(C)C)c4)c4ccc([nH]4)c(-c4ccccc4)c4nc2C=C4)C=C3)ccc1O | 61.8 |
| C[N+](C)(C)Cc1cc(-c2c3nc(cc4ccc([nH]4)c(-c4ccc(O)c(C[N+](C)(C)C)c4)c4nc(cc5ccc2[nH]5)C=C4)C=C3)ccc1O | 5.6 |
| CCc1c2nc(c(-c3ccc(OC)c(C[N+](C)(C)C)c3)c3ccc([nH]3)c(CC)c3ccc([nH]3)c(-c3ccc(OC)c(C[N+](C)(C)C)c3)c3nc1C=C3)C=C2 | 1400 |
